Reference: patent publication US4346087A, “Antibacterial surface active agent containing azaalkenelactam” (priority 1979, dated 1982)
Values after ≈ are worked out from the molar mass of the structure shown. Where two headings read alike, the source gives them in different places.

Assays:
Escherichia coli NIHJ = experiment: MIC against Escherichia coli NIHJ; assay type: cell-based; conditions: Escherichia coli
Text: (§1) Below are described the antibacterial activities of the compounds in the compositions according to this invention.
(§2) The testing method complied with the standard method of Japan Sociaty of Chemotherapy.

[1] = tested on: Staphylococcus aureus FDA 209P; experiment: MIC against Staphylococcus aureus FDA 209P; assay type: cell-based; conditions: Staphylococcus aureus, FDA209P
Text: as §1, §2

[2] = tested on: Desulfovibrio desulfuricans IFO 13699; experiment: MIC against Desulfovibrio desulfuricans; assay type: cell-based; conditions: Desulfovibrio desulfuricans
Text: as §1, §2

[3] = tested on: Pseudomonas aruginosa IFO 3443; experiment: MIC against Pseudomonas aeruginosa; assay type: cell-based; conditions: Pseudomonas
Text: (§3) Below are described the antibacterial activities of the compounds in the compositions according to this invention. The results of antibacterial activity tests on the N-alkyl-substituted azaalkenelactams and their derivatives having a carboxylate radical of Examples 1 to 70 were as shown in Tables 1 to 3.
as §2

[4] = tested on: Bacillus subtilis ATCC 6633; experiment: MIC against Bacillus subtilis ATCC 6633; assay type: cell-based; conditions: Bacillus subtilis
Text: as §3, §2

Pasteurella multocida = experiment: MIC against Pasteurella multocida; assay type: cell-based; conditions: Pasteurella multocida
Text: as §3, §2

Salmonella typhinurium = experiment: microbe, parasite or virus in culture; assay type: cell-based, Salmonella typhimurium
Text: as §3, §2

[5] = tested on: Staphylococcus epidermidis; experiment: MIC against Staphylococcus epidermidis; assay type: cell-based; conditions: Staphylococcus epidermidis
Text: as §3, §2

Streptococcus faecalis = experiment: MIC against Streptococcus faecalis; assay type: cell-based; conditions: Enterococcus faecalis
Text: as §3, §2

[6] = Table 1, azaalkenelactams, heart infusion agar, 37° C., 24 hours, read-out: MIC
[7] = IFO13699, Table 1, azaalkenelactams, heart infusion agar, 37° C., 24 hours, read-out: MIC
[8] = Table 3, heart infusion agar, 37° C., 24 hours, read-out: MIC

Structure (SMILES) | MIC (Escherichia coli NIHJ; [6]) [µg/mL] | MIC [1, 6] [µg/mL] | MIC [2, 7] [µg/mL] | MIC ([3]; IFO3443, Table 3, heart infusion agar, 37° C., 24 hours, read-out: MIC) [µg/mL] | MIC ([4]; ATCC6633, 24 h) [µg/mL] | MIC (Pasteurella multocida; [8]) [µg/mL] | MIC (Salmonella typhinurium; [8]) [µg/mL] | MIC [5, 8] [µg/mL] | MIC (Streptococcus faecalis; [8]) [µg/mL] | MIC (Escherichia coli NIHJ; 24 h) [µg/mL] | MIC ([1]; 24 h) [µg/mL] | MIC ([2]; IFO13699, 24 h) [µg/mL] | MIC ([3]; IFO3443, 24 h) [µg/mL] | MIC (Salmonella typhinurium; 24 h) [µg/mL] | MIC ([5]; 24 h) [µg/mL] | MIC (Streptococcus faecalis; 24 h) [µg/mL] | MIC ([4]; ATCC6633, Table 3, heart infusion agar, 37° C., 24 hours, read-out: MIC) [µg/mL] | MIC (Pasteurella multocida; 24 h) [µg/mL]
CCCCCCCCCCCCCCC(O)CNCCN1CCN=C(C)CC1=O (stereo not drawn) [Example 29, 4-(2-hydroxyhexadecyl)aminoethyl-7-methyl-3,6-dihydro-2H-1,4-diazepin-5-one] | 25 (≈ 61 µM) | 6.25 (≈ 15.3 µM) | 3.12 (≈ 7.62 µM) | 100 (≈ 244 µM) | 3.12 (≈ 7.62 µM) | < 1.56 | 3.12 (≈ 7.62 µM) | 1.56 (≈ 3.81 µM) | 6.25 (≈ 15.3 µM) |  |  |  |  |  |  |  |  | 
CCCCCCCCCCCC(=O)NCCN1CC[N+](CC(=O)[O-])=C(C)CC1=O [4-lauramidoethyl-7-methyl-1-azonia-4-azacyclohept-7-en-5-one-1-acetate] |  |  |  |  | 50 (≈ 122 µM) | < 1.56 |  |  |  | 100 (≈ 244 µM) | 50 (≈ 122 µM) | 12.5 (≈ 30.5 µM) | 200 (≈ 488 µM) | 6.25 (≈ 15.3 µM) | 12.5 (≈ 30.5 µM) | 12.5 (≈ 30.5 µM) |  | 
CCCCCCCCCCCCCCNCCN1CCCN=CC(C)(C)C1=O [Example 60, 1-tetradecylaminoethyl-3,3-dimethyl-6,7,8-trihydro-1,5-diazocin-5-one] |  |  |  |  | 3.12 (≈ 7.93 µM) | < 1.56 | 3.12 (≈ 7.93 µM) | 1.56 (≈ 3.96 µM) |  | 12.5 (≈ 31.8 µM) | 6.25 (≈ 15.9 µM) | 6.25 (≈ 15.9 µM) | 100 (≈ 254 µM) |  |  | 6.25 (≈ 15.9 µM) |  | 
CCCCCCCCCCCCCCNCCN1CCN=CC(C)(C)C1=O [Example 58, 4-tetradecylaminoethyl-6,6-dimethyl-3-hydro-2H-1,4-diazepin-5-one] |  | 3.12 (≈ 8.22 µM) | 3.12 (≈ 8.22 µM) |  |  |  | 1.56 (≈ 4.11 µM) |  | 3.12 (≈ 8.22 µM) | 6.25 (≈ 16.5 µM) |  |  | 50 (≈ 132 µM) |  | < 1.56 |  | 3.12 (≈ 8.22 µM) | < 1.56
CCCCCCCCCCCCCCNCCN1CCN=CCC(C)C1=O (stereo not drawn) [Example 65, 4-tetradecylaminoethyl-6-methyl-2,3,6,7-tetrahydro-1,4-diazocin-5-one] |  | 3.12 (≈ 8.22 µM) |  |  | 3.12 (≈ 8.22 µM) | < 1.56 | 3.12 (≈ 8.22 µM) | 1.56 (≈ 4.11 µM) |  | 12.5 (≈ 32.9 µM) |  | 6.25 (≈ 16.5 µM) | 100 (≈ 263 µM) |  |  | 6.25 (≈ 16.5 µM) |  | 
CCCCCCCCCCCCCCC(O)CNCCN1CCN=CCCC1=O (stereo not drawn) [Example 54, 4-(2-hydroxyhexadecyl)aminoethyl-2,3,6,7-tetrahydro-1,4-diazocin-5-one] |  |  |  |  | 3.12 (≈ 7.62 µM) | < 1.56 | 3.12 (≈ 7.62 µM) | 1.56 (≈ 3.81 µM) |  | 6.25 (≈ 15.3 µM) | 6.25 (≈ 15.3 µM) | 6.25 (≈ 15.3 µM) | 200 (≈ 488 µM) |  |  | 6.25 (≈ 15.3 µM) |  | 
CCCCCCCCCCCCCCC(O)CNCCN1CCCN=CC(C)(C)C1=O (stereo not drawn) [Example 61, 1-(2-hydroxyhexadecyl)aminoethyl-3,3-dimethyl-6,7,8-trihydro-1,5-diazocin-5-one] |  |  |  |  | 3.12 (≈ 7.13 µM) | < 1.56 | 3.12 (≈ 7.13 µM) | 1.56 (≈ 3.56 µM) |  | 25 (≈ 57.1 µM) | 6.25 (≈ 14.3 µM) | 6.25 (≈ 14.3 µM) | 200 (≈ 457 µM) |  |  | 6.25 (≈ 14.3 µM) |  | 
CCCCCCCCCCCCNCCNCCN1CCN=C(C)CC1=O [Example 34, 4-dodecylaminoethylaminoethyl-7-methyl-3,6-dihydro-2H-1,4-diazepin-5-one] |  | 3.12 (≈ 8.2 µM) | 3.12 (≈ 8.2 µM) |  | 3.12 (≈ 8.2 µM) | < 1.56 | 3.12 (≈ 8.2 µM) | < 1.56 |  | 25 (≈ 65.7 µM) |  |  | 100 (≈ 263 µM) |  |  | 6.25 (≈ 16.4 µM) |  | 
CCCCCCCCCCCCCCNCCN1CCN=CCCC1=O [Example 53, 4-tetradecylaminoethyl-2,3,6,7-tetrahydro-1,4-diazocin-5-one] |  | 1.56 (≈ 4.27 µM) | 3.12 (≈ 8.53 µM) |  | 3.12 (≈ 8.53 µM) | < 1.56 | 3.12 (≈ 8.53 µM) | 1.56 (≈ 4.27 µM) |  | 6.25 (≈ 17.1 µM) |  |  | 100 (≈ 274 µM) |  |  | 6.25 (≈ 17.1 µM) |  | 
CCCCCCCCCCCC(=O)NCCN1CCN=C(C)CC1=O [Example 9, 4-lauramidoethyl-7-methyl-3,6-dihydro-2H-1,4-diazepin-5-one] |  |  |  |  | 25 (≈ 71.1 µM) | 3.12 (≈ 8.88 µM) |  |  |  | 25 (≈ 71.1 µM) | 12.5 (≈ 35.6 µM) | 6.25 (≈ 17.8 µM) | 100 (≈ 284 µM) | 6.25 (≈ 17.8 µM) | 6.25 (≈ 17.8 µM) | 12.5 (≈ 35.6 µM) |  | 
